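Here, GI50 denotes the concentration required for 50% inhibition of growth. TGI: total growth inhibition.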
Columns and labels:
Assay in all cases: NCI-60 cell line screen, 384-well format
UO-31 renal = tested on: UO-31 renal
ACHN renal = tested on: ACHN renal
NCI-H322M lung = tested on: NCI-H322M lung
RPMI-8226 leukemia = tested on: RPMI-8226 leukemia
M14 melanoma = tested on: M14 melanoma
MDA-MB-435 melanoma = tested on: MDA-MB-435 melanoma
IGROV1 ovarian = tested on: IGROV1 ovarian
HL-60(TB) leukemia = tested on: HL-60(TB) leukemia
MDA-MB-231 breast = tested on: MDA-MB-231 breast
SW-620 colon = tested on: SW-620 colon
A498 renal = tested on: A498 renal
HCT-116 colon = tested on: HCT-116 colon
UACC-257 melanoma = tested on: UACC-257 melanoma
MOLT-4 leukemia = tested on: MOLT-4 leukemia
SK-OV-3 ovarian = tested on: SK-OV-3 ovarian
COLO 205 colon = tested on: COLO 205 colon
TK-10 renal = tested on: TK-10 renal
SK-MEL-28 melanoma = tested on: SK-MEL-28 melanoma
SF-539 CNS = tested on: SF-539 CNS
OVCAR-3 ovarian = tested on: OVCAR-3 ovarian
U251 glioblastoma = tested on: U251 glioblastoma
SNB-19 CNS = tested on: SNB-19 CNS
DU-145 prostate = tested on: DU-145 prostate
NCI/ADR-RES ovarian = tested on: NCI/ADR-RES ovarian
K-562 leukemia = tested on: K-562 leukemia
OVCAR-8 ovarian = tested on: OVCAR-8 ovarian
RXF 393 renal = tested on: RXF 393 renal
SR leukemia = tested on: SR leukemia
SF-268 CNS = tested on: SF-268 CNS

How did the GI50 (UO-31 renal) turn out when O=C(NS(=O)(=O)c1ccc(NC[C@H]2COCCO2)c([N+](=O)[O-])c1)c1ccc(N2CCN(CC3=C(c4ccc(Cl)cc4)CC4(CCC4)CC3)CC2)cc1Oc1cnc2[nH]ccc2c1 was run?
Its GI50 is 2100 nM.

What about the TGI (UO-31 renal) of the same compound?
The TGI was 4.75 µM.

And the GI50 (ACHN renal)?
The GI50 was 2370 nM.

And the TGI (ACHN renal)?
The TGI was 6.63 µM.

What about the GI50 (NCI-H322M lung) of the same compound?
The GI50 was 2790 nM.

And the TGI (NCI-H322M lung)?
The TGI was 6.65 µM.

And the GI50 (RPMI-8226 leukemia)?
The GI50 was 1020 nM.

What about the TGI (RPMI-8226 leukemia) of the same compound?
Its TGI is 2180 nM.

And the GI50 (M14 melanoma)?
The GI50 was 2100 nM.

What about the TGI (M14 melanoma) of the same compound?
The TGI was 4.14 µM.

And the GI50 (MDA-MB-435 melanoma)?
Its GI50 is 2380 nM.

And the TGI (MDA-MB-435 melanoma)?
Its TGI is 5.03 µM.

What about the GI50 (IGROV1 ovarian) of the same compound?
The GI50 was 1840 nM.

What about the TGI (IGROV1 ovarian) of the same compound?
Its TGI is 4.31 µM.

What about the GI50 (HL-60(TB) leukemia) of the same compound?
Its GI50 is 23.9 nM.

What about the TGI (HL-60(TB) leukemia) of the same compound?
Its TGI is 1240 nM.

What about the GI50 (MDA-MB-231 breast) of the same compound?
The GI50 was 2060 nM.

What about the TGI (MDA-MB-231 breast) of the same compound?
Its TGI is 4.32 µM.

What about the GI50 (SW-620 colon) of the same compound?
Its GI50 is 3.96 µM.

And the TGI (SW-620 colon)?
Its TGI is 12.9 µM.

What about the GI50 (A498 renal) of the same compound?
The GI50 was 1860 nM.

And the TGI (A498 renal)?
The TGI was 5.09 µM.

What about the GI50 (HCT-116 colon) of the same compound?
The GI50 was 2300 nM.

What about the TGI (HCT-116 colon) of the same compound?
The TGI was 5.47 µM.

What about the GI50 (UACC-257 melanoma) of the same compound?
The GI50 was 2170 nM.

And the TGI (UACC-257 melanoma)?
Its TGI is 4.31 µM.

What about the GI50 (MOLT-4 leukemia) of the same compound?
Its GI50 is 814 nM.

And the TGI (MOLT-4 leukemia)?
The TGI was 2080 nM.

And the GI50 (SK-OV-3 ovarian)?
Its GI50 is 2910 nM.

What about the TGI (SK-OV-3 ovarian) of the same compound?
The TGI was 7.58 µM.

And the GI50 (COLO 205 colon)?
Its GI50 is 2260 nM.

What about the TGI (COLO 205 colon) of the same compound?
Its TGI is 4.27 µM.

And the GI50 (TK-10 renal)?
The GI50 was 2690 nM.

And the TGI (TK-10 renal)?
Its TGI is 8.48 µM.

And the GI50 (SK-MEL-28 melanoma)?
The GI50 was 2530 nM.

And the TGI (SK-MEL-28 melanoma)?
Its TGI is 5.49 µM.

And the GI50 (SF-539 CNS)?
Its GI50 is 1970 nM.

What about the TGI (SF-539 CNS) of the same compound?
The TGI was 4.22 µM.

And the GI50 (OVCAR-3 ovarian)?
Its GI50 is 2000 nM.

And the TGI (OVCAR-3 ovarian)?
The TGI was 3.91 µM.

What about the GI50 (U251 glioblastoma) of the same compound?
The GI50 was 2340 nM.

What about the TGI (U251 glioblastoma) of the same compound?
The TGI was 5.35 µM.

What about the GI50 (SNB-19 CNS) of the same compound?
Its GI50 is 3.97 µM.

What about the TGI (SNB-19 CNS) of the same compound?
The TGI was 14.7 µM.

And the GI50 (DU-145 prostate)?
The GI50 was 2820 nM.

What about the TGI (DU-145 prostate) of the same compound?
The TGI was 7.77 µM.

What about the GI50 (NCI/ADR-RES ovarian) of the same compound?
The GI50 was 4.66 µM.

And the TGI (NCI/ADR-RES ovarian)?
Its TGI is 16.7 µM.

What about the GI50 (K-562 leukemia) of the same compound?
The GI50 was 3.32 µM.

What about the TGI (K-562 leukemia) of the same compound?
Its TGI is 11.1 µM.

What about the GI50 (OVCAR-8 ovarian) of the same compound?
The GI50 was 2990 nM.

And the TGI (OVCAR-8 ovarian)?
The TGI was 9.88 µM.

What about the GI50 (RXF 393 renal) of the same compound?
Its GI50 is 1340 nM.

And the TGI (RXF 393 renal)?
Its TGI is 2940 nM.

And the GI50 (SR leukemia)?
The GI50 was 1130 nM.

And the TGI (SR leukemia)?
The TGI was 2350 nM.

What about the GI50 (SF-268 CNS) of the same compound?
Its GI50 is 3.32 µM.
